Experimental data reported in paper PMC6072516, “Rational design and synthesis of novel phenylsulfonyl-benzamides as anti-prostate cancer agents” (MedChemComm, 2017).
Where two headings read alike, the source gives them in different places.

What was measured:
[1] = system: four human prostate cancer cell lines: LNCaP, 22Rv1, VCaP, DU145; assay: Antiproliferative assay, overall effect in the four cell lines (geometric mean); assay type: cell-based; conditions: for IC50: geometric mean of the four cell lines, read-out: Absolute IC50 Geo. mean
Experimental: PCR based DNA-fingerprinting methodology.
density of 4.000 – 30.000 cells/well.
test compound were added.
concentrations in triplicate.
After an incubation period of
control/background ratio >3.0
The absolute IC50 value reflects the
The calculation was done by a 4
for calculation of the geometric mean value.
of 0.05% Trypsin/EDTA. […] When all cells

[2] = Cell Titer Blue viability (cytotoxicity) assay; assay type: cell-based, human; conditions: human
Experimental: (§1) A Cell Titer Blue viability assay was performed in the human embryonic kidney cell line HEK293, in order to evaluate the cytotoxicity profile of the newly prepared compounds. […] .
(§2) Fig. 5 HEK293 human embryonic kidney cells were treated at 70% confluence with negative controls (0.1% DMSO, BICAL at 10 μM), positive control (10% DMSO) and compounds at 10 μM concentration for 24 hours. […] Fluorescence was measured at 560/590 nm using a CLARIOstar luminescence plate reader (BMG Labtech). N = 4, n = 6 for controls, n = 3 for drugs. […]
(§3) for calculation of the geometric mean value. […]
(§4) of 0.05% Trypsin/EDTA. […] When all cells […]
(§5) chamber counting grid (Immune Systems). […]
(§6) confluence for assay the next day. […]
(§7) drugs at 10 µM concentration.
(§8) 100 µl media. […] Fluorescence was measured
(§9) USA). […] The Dunnett’s multiple […]
(§10) comparison test was used to compare each drug and the positive control to the negative control […]
(§11) Compound R1 X R2 Cell Viability Antiproliferative
(§12) Mean (%)* SEM** Abs. IC50
(§13) Table S2. Cell Viability assay at 10 µM. * Mean % of cell viability relative to control; ** Errors are calculated as standard error of the mean; ***Geometric mean.

LNCaP = assay: 2D monolayer antiproliferative assay (propidium iodide), LNCaP; conditions: for IC50: Homo sapiens, LNCaP, 96 h, read-out: Absolute IC50 LNCaP
Experimental: (§14) All new compounds along with the two standards were tested for their ability to inhibit survival and/or cell proliferation in four human prostate cancer cell lines: LNCaP, 22Rv1, VCaP, androgen-sensitive cell lines, and DU145, a non hormone-sensitive cell line.
(§15) Compound Handling: Stock solutions for all inhibitors were prepared in DMSO at a
(§16) were well soluble at this concentration in DMSO and precipitation was not observed for any
(§17) compound dissolved in 100% DMSO. Aliquots of the stock solution were thawed on the day
(§18) of use and stored at room temperature prior to and during treatment. The subsequent dilutions
(§19) were done with complete RPMI1640 cell culture medium. The DMSO stock solution was first
(§20) Starting with this solution, serial dilutions in
(§21) half-log steps with cell culture medium were done using an intermediate dilution plate. Finally,
(§22) 10 µl taken from the intermediate dilution plate were transferred to 140 µl / well of the cell
(§23) culture plate. Thus, at the highest test concentration the DMSO stock was diluted 1:330,
(§24) corresponding to a maximum DMSO concentration of 0.3 % v/v in the assay. Solubility of the
(§25) diluted compounds in the assay was monitored under the microscope by visual inspection of
(§26) the treated cell lines after the 4 days incubation. Precipitation as observed by crystalline
(§27) Tumor Cell lines: The cell line panel used for assessing the novel inhibitors comprised four
(§28) cell lines derived from human prostate cancers.
(§29) 6-7 Cell lines were routinely passaged once or twice weekly and maintained in culture for up to 20 passages. All cells were grown at 37°C in
(§30) glutamine, #FG1385, Biochrom, Berlin, Germany) supplemented with 10% (v/v) fetal calf serum (Sigma, Taufkirchen, Germany) and 0.1 mg/mL gentamicin (Life Technologies,
(§31) Cell Proliferation Assay: A modified propidium iodide (PI) based monolayer assay was used
(§32) exponential phase cultures, counted and plated in 96-well flat-bottom micro titer plates at a cell density of 4.000 – 30.000 cells/well. After a 24 h recovery period to allow the cells to resume exponential growth, 10 µl of culture medium (six control wells/plate) or culture medium with test compound were added. The compounds were applied in half-log increments at 10 concentrations in triplicate. After a total treatment period of 96 h, cells were washed with 200 µl PBS to remove dead cells and debris. Then, 200 µl of a solution containing 7 µg/ml propidium iodide (PI) and 0.1% (v/v) Triton X-100 was added. After an incubation period of 1-2 hours at room temperature, fluorescence (FU) was measured using the EnSpire Multimode Plate Reader (excitation λ= 530 nm, emission λ= 620 nm) to quantify the amount of attached
(§33) For calculation of mean IC50 values the geometric mean was used.
(§34) Data Evaluation: An assay was considered fully evaluable if the following quality control
(§35) - Z’-factor calculated within the assay plate ≥0.59
(§36) - fluorescence intensity of >500 U from the untreated control wells, equivalent to a
(§37) - coefficient of variation in the growth control wells ≤30
(§38) Compound effects were expressed in terms of the percentage of the fluorescence signal, obtained by comparison of the mean signal in the treated wells with the mean signal of the untreated controls (expressed by the test-versus-control value, T/C-value [%]):

22Rv1 = assay: 2D monolayer antiproliferative assay (propidium iodide), 22Rv1; conditions: Homo sapiens, 22Rv1, 96 h, read-out: Absolute IC50 22Rv1
Experimental: as §14, §15, §16, §17, §18, §19, §20, §21, §22, §23, §24, §25, §26, §27, §28, §29, §30, §31, §32, §33, §34, §35, §36, §37, §38

DU-145 = assay: 2D monolayer antiproliferative assay (propidium iodide), DU-145; conditions: Homo sapiens, DU-145, 96 h, read-out: Absolute IC50 DU-145
Experimental: as §14, §15, §16, §17, §18, §19, §20, §21, §22, §23, §24, §25, §26, §27, §28, §29, §30, §31, §32, §33, §34, §35, §36, §37, §38

VCaP = assay: 2D monolayer antiproliferative assay (propidium iodide), VCaP; conditions: Homo sapiens, 96 h, read-out: Absolute IC50 VCaP
Experimental: as §14, §15, §16, §17, §18, §19, §20, §21, §22, §23, §24, §25, §26, §27, §28, §29, §30, §31, §32, §33, §34, §35, §36, §37, §38

[3] = system: HEK293 human embryonic kidney cells; assay: Cell Titer Blue viability (cytotoxicity) assay; assay type: cell-based
Experimental: as §1, §2, §3, §4, §5, §6, §7, §8, §9, §10, §11, §12, §13

[4] = 10 µM, 24 h, HEK293, mean % of cell viability relative to control, read-out: Cell Viability Mean (%)

Row | Structure (SMILES) | IC50 ([1]; Homo sapiens) [µM] | viability at 24 h, 10 µM [2, 4] [%] | IC50 (LNCaP) [µM] | IC50 (22Rv1) [µM] | IC50 (DU-145) [µM] | IC50 (VCaP) [µM] | viability at 24 h, 10 µM [2] [%] | IC50 [1] [µM] | viability at 24 h, 10 µM ([2]; HEK293 cells, 10 µM, 24 h, HEK293, mean % of cell viability relative to control, read-out: Cell Viability Mean (%)) [%] | increase of IC50 values, sulfone vs thioether ([1]; 11c vs 13c) | reduction of overall effect in the four cell lines, ortho vs meta CF3 ([1]; 11h vs 11i) [fold] | Absolute IC50 LNCaP (LNCaP; 96 h treatment, mean of triplicate, SD ±10%) | reduction of cell viability / cells killed ([3]; human, 24 h, 10 μM) | Cell Viability Mean (%) ([3]; 10 µM)
1 | N#Cc1ccc(NC(=O)c2ccc(S(=O)(=O)c3cccc(C(F)(F)F)c3)cc2)cc1C(F)(F)F [Compound 15a] | 4.71 | 79 | 3.73 | 3.57 | 4.7 | 7.87 |  |  |  |  |  |  |  | 
2 | O=C(Nc1cccc(S(F)(F)(F)(F)F)c1)c1ccc(S(=O)(=O)c2ccc(O)cc2)cc1 [Compound 13f, N-(3-(Pentafluorosulfanyl)phenyl)-4-((4-hydroxyphenyl)sulfonyl)benzamide] | 6.18 |  | 3.98 | 5.66 | 6.01 | 10.8 | 76.2 |  |  |  |  |  |  | 
3 | O=C(Nc1cccc(S(F)(F)(F)(F)F)c1)c1ccc(Sc2ccc(O)cc2)cc1 [Compound 11f] | 4.01 |  | 3.32 | 2.94 | 4.35 | 6.1 | 60.5 |  |  |  |  |  |  | 
4 | O=C(Nc1cc(C(F)(F)F)cc(C(F)(F)F)c1)c1ccc(Sc2ccc(O)cc2)cc1 [Compound 11c] | 3.28 |  | 2.39 | 3.35 | 5.6 | 2.59 | 64.2 |  |  |  |  |  |  | 
5 | O=C(Nc1ccc(C(F)(F)F)cc1)c1ccc(Sc2ccc(O)cc2)cc1 [Compound 11g] | 8.09 |  | 8.3 | 6.23 | 8.55 | 9.68 | 66.3 |  |  |  |  |  |  | 
6 | C[C@](O)(CS(=O)(=O)c1ccc(F)cc1)C(=O)Nc1ccc(C#N)c(C(F)(F)F)c1 [Bicalutamide, bicalutamide, reference compound] | 50 |  |  |  |  |  |  | 52.4 | 94.6 |  |  |  |  | 
7 | O=C(Nc1cc(C(F)(F)F)ccc1C(F)(F)F)c1ccc(S(=O)(=O)c2ccc(O)cc2)cc1 [Compound 13d] | 25.2 |  | 23.2 | 20.7 | 27.8 | 30.5 |  |  |  |  |  |  |  | 
8 | O=C(Nc1ccc([N+](=O)[O-])c(C(F)(F)F)c1)c1ccc(S(=O)(=O)c2ccc(O)cc2)cc1 [Compound 13b] |  |  | 4.96 | 7.3 | 8.85 | 8.57 | 82.3 |  |  |  |  |  |  | 
9 | O=C(Nc1cc(C(F)(F)F)cc(C(F)(F)F)c1)c1ccc(S(=O)(=O)c2ccc(O)cc2)cc1 [Compound 13c] | 8.5 |  | 8.41 | 6.44 | 9.92 | 9.72 | 65.7 |  |  | up to 2 fold |  |  |  | 
10 | N#Cc1ccc(NC(=O)c2ccc(Sc3cccc(C(F)(F)F)c3)cc2)cc1C(F)(F)F [Compound 12a] | 5.5 | 60 | 8.87 | 3.57 | 5.12 | 5.66 |  |  |  |  |  |  |  | 
11 | O=C(Nc1ccccc1C(F)(F)F)c1ccc(S(=O)(=O)c2ccc(O)cc2)cc1 [Compound 13i] | 49.1 |  | 39.3 | 49.3 | 45.9 | 65.2 | 129 |  |  |  |  |  |  | 
12 | N#Cc1ccc(NC(=O)c2ccc(S(=O)(=O)c3ccc(O)cc3)cc2)cc1C(F)(F)F [Compound 13a] | 8.84 | 73 | 4.68 | 12.1 | 12.6 | 8.56 |  |  |  |  |  |  |  | 
13 | O=C(Nc1ccc(C(F)(F)F)cc1)c1ccc(S(=O)(=O)c2ccc(O)cc2)cc1 [Compound 13g] | 19.7 |  | 10.8 | 16.8 | 30.7 | 27.2 | 61.8 |  |  |  |  |  |  | 
14 | O=C(Nc1ccc([N+](=O)[O-])c(C(F)(F)F)c1)c1ccc(Sc2ccc(O)cc2)cc1 [Compound 11b] | 4.68 |  | 3.58 | 4.5 | 5.74 | 5.19 | 65.4 |  |  |  |  |  |  | 
15 | O=C(Nc1ccccc1C(F)(F)F)c1ccc(Sc2ccc(O)cc2)cc1 [Compound 11i] | 25.2 |  | 11.4 | 30.9 | 35.7 | 32.3 | 111 |  |  |  | 3 |  |  | 
16 | O=C(Nc1ccc(S(F)(F)(F)(F)F)cc1)c1ccc([S+]([O-])c2ccc(O)cc2)cc1 (stereo not shown) [Compound 14e, 4-((4-Hydroxyphenyl)sulfinyl)-N-(4-(pentafluorothio)phenyl)benzamide] | 3.75 |  | 0.9 | 5.6 | 11 | 3.53 | 59.7 |  |  |  |  | sub μM |  | 
17 | O=C(Nc1cccc(C(F)(F)F)c1)c1ccc(S(=O)(=O)c2ccc(O)cc2)cc1 [Compound 13h] | < 16 |  | 10.2 | 15.1 | 17.7 | 30.1 | 87.6 | 16.8 |  |  |  |  |  | 
18 | N#Cc1ccc(NC(=O)c2ccc(Sc3ccc(O)cc3)cc2)cc1C(F)(F)F [Compound 11a] | 7.08 | 65.7 | 5.43 | 6.24 | 7.77 | 9.55 |  |  |  |  |  |  |  | 
19 | O=C(Nc1cccc(C(F)(F)F)c1)c1ccc(Sc2cccc(C(F)(F)F)c2)cc1 [Compound 12h] | < 16 |  | 12.5 | 6.96 | 9.89 | 28.2 | 112 | 12.5 |  |  |  |  |  | 
20 | O=C(Nc1ccc(S(F)(F)(F)(F)F)cc1)c1ccc(Sc2ccc(O)cc2)cc1 [Compound 11e] | 5.43 |  | 4.86 | 3.71 | 6.76 | 7.15 | 49.5 |  |  |  |  |  |  | 
21 | O=C(Nc1cccc(C(F)(F)F)c1)c1ccc(S(=O)(=O)c2cccc(C(F)(F)F)c2)cc1 [Compound 15h] |  |  |  |  |  |  | 83.9 |  |  |  |  |  |  | 
22 | O=C(Nc1ccccc1C(F)(F)F)c1ccc([S+]([O-])c2ccc(O)cc2)cc1 (stereo not shown) [Compound 14i] |  |  | 62 | > 100 | > 100 | 97.6 | 104 |  |  |  |  |  |  | 
23 | O=C(Nc1ccc(S(F)(F)(F)(F)F)cc1)c1ccc(S(=O)(=O)c2ccc(O)cc2)cc1 [Compound 13e, 4-((4-Hydroxyphenyl)sulfonyl)-N-(4-(pentafluorothio)phenyl)benzamide] | 5.37 |  | 2.49 | 5.78 | 10.8 | 5.35 | 38.4 |  |  |  |  |  | more than 50% | 
24 | O=C(Nc1cc(C(F)(F)F)ccc1C(F)(F)F)c1ccc(Sc2ccc(O)cc2)cc1 [Compound 11d] | 12.1 |  | 11.4 | 10.3 | 16.6 | 10.9 | 53.7 |  |  |  |  |  |  | 
25 | C[S+](C)[O-] [10% DMSO] |  |  |  |  |  |  |  |  |  |  |  |  |  | 1.45
26 | O=C(Nc1cccc(C(F)(F)F)c1)c1ccc(Sc2ccc(O)cc2)cc1 [Compound 11h] |  |  | 9.66 | 5.73 | 5.95 | 10.6 | 85.6 |  |  |  |  |  |  | 
